Tests used:
[1] = molecular target: T1, 70 key receptor, enzyme, and ion channel proteins (Homo sapiens, UniProt P50406); experiment: General side effect profile (SEP) II diversity panel; assay type: binding; details: 1.0E-5 M
T1 construct: purchased Caliper Life Sciences (now PerkinElmer), NOVASCREEN General SEP II

[2] = molecular target: T2, muscarinic receptor M5 (printed "MS") (Homo sapiens, UniProt P08912); experiment: as above; assay type: binding; details: human; 1.0E-5 M; read-out: Percent Inhibition: Muscarinic, MS (h)
T2 construct: purchased Caliper Life Sciences (now PerkinElmer), NOVASCREEN General SEP II
T2 sequence (P08912 whole entry): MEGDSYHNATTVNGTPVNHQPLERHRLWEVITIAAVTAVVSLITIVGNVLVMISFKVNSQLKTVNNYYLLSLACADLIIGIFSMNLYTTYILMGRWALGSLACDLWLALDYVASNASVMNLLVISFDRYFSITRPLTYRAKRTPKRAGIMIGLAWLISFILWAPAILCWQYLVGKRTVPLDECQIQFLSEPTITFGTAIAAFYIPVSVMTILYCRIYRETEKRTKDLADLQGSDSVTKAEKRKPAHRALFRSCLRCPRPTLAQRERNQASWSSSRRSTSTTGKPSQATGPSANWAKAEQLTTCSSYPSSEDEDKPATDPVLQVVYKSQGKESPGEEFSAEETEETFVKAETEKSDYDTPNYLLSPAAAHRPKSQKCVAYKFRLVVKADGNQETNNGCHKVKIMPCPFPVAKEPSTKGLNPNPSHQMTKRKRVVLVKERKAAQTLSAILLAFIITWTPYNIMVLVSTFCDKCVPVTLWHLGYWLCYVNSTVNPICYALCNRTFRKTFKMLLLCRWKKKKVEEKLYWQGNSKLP

[3] = molecular target: T3, 70 key receptor, enzyme, and ion channel proteins (Homo sapiens, UniProt O76074); experiment: as above; assay type: binding; details: 1.0E-5 M
T3 construct: purchased Caliper Life Sciences (now PerkinElmer), NOVASCREEN General SEP II

[4] = molecular target: 70 key receptor, enzyme, and ion channel proteins (Homo sapiens, UniProt P41143); experiment: as above; assay type: binding
Chain of 70 key receptor, enzyme, and ion channel proteins (Homo sapiens, UniProt P41143) (P41143 whole entry): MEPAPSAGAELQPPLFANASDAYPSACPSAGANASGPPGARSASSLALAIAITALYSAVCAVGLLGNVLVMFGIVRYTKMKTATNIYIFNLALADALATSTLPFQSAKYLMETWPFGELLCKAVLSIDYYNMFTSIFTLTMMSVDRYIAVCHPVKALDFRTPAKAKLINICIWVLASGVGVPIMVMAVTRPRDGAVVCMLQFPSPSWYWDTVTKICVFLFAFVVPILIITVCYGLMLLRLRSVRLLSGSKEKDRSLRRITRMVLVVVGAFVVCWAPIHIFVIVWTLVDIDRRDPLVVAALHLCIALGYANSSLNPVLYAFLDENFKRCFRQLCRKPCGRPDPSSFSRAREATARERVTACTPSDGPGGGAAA

[5] = test system: 70 key receptor, enzyme, and ion channel proteins; experiment: as above; assay type: binding; details: 1.0E-5 M
[6] = molecular target: T4, 70 key receptor, enzyme, and ion channel proteins (Homo sapiens, UniProt P08173); experiment: as above; assay type: binding; details: 1.0E-5 M
T4 construct: purchased Caliper Life Sciences (now PerkinElmer), NOVASCREEN General SEP II
T4 sequence (P08173 whole entry): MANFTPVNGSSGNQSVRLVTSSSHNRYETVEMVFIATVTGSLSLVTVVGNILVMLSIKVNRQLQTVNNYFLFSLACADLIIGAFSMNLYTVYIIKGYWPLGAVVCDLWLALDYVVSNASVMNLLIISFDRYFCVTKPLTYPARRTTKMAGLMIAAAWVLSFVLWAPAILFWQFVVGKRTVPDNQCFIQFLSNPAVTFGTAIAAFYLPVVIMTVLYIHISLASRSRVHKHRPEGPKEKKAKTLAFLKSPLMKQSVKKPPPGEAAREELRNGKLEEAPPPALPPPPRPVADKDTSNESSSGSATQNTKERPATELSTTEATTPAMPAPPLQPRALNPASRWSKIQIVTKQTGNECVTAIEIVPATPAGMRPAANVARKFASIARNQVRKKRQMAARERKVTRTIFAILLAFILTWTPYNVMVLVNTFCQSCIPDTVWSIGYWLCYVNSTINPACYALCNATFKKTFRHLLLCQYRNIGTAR

[7] = molecular target: T5, 70 key receptor, enzyme, and ion channel proteins (Homo sapiens, UniProt P47898); experiment: as above; assay type: binding; details: 1.0E-5 M
T5 construct: purchased Caliper Life Sciences (now PerkinElmer), NOVASCREEN General SEP II
T5 sequence (P47898 whole entry): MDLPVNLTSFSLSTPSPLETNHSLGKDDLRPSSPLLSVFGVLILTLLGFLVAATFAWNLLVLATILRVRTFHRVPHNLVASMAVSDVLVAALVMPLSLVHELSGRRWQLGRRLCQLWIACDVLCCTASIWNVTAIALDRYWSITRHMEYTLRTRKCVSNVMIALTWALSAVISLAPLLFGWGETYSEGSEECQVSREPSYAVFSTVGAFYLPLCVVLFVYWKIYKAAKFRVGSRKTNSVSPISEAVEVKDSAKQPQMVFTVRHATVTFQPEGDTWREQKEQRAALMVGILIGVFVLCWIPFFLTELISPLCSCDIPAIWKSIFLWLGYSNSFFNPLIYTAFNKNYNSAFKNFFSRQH

[8] = molecular target: T6, 70 key receptor, enzyme, and ion channel proteins (Homo sapiens, UniProt P17252); experiment: as above; assay type: binding; details: 1.0E-5 M
T6 construct: purchased Caliper Life Sciences (now PerkinElmer), NOVASCREEN General SEP II

CYP2C8 = molecular target: T7, CYP2C8 (Homo sapiens, UniProt P10632); experiment: Cytochrome P450 profiling, montelukast; assay type: in vitro ADME; details: for % PU-HZ151 remaining: Montelukast
T7 construct: tissue Life Technologies HMMCPL; host or cells: human liver microsomes
T7 sequence (P10632 1-490): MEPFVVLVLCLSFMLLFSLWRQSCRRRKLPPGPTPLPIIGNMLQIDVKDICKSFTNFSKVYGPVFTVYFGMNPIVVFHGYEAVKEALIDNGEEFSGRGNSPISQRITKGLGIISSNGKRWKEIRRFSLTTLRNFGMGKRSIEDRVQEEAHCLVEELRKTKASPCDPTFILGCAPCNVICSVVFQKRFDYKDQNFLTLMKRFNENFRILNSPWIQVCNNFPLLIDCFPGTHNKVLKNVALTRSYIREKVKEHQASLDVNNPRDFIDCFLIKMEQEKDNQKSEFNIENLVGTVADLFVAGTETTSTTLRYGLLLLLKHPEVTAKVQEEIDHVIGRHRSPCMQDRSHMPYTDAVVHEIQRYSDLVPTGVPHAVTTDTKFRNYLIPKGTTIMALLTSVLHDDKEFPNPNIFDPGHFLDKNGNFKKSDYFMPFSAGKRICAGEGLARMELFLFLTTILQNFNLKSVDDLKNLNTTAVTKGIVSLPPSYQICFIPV
Description: To identify cytochrome P450 enzymes responsible for PU-HZ151’s metabolism in human liver microsomes the following procedure was followed. Phosphate buffer (100 mM, pH 7.4) was prepared monthly and stored at 4 °C. Frozen stock solutions of human liver microsomes (Life Technologies; Cat# HMMCPL) were used once after thawing and were not refrozen. NADPH stock solution (50 mM) in distilled water was prepared fresh daily. […] The stock solutions of these P450 inhibitors were prepared in DMSO. […] The concentration of the chemical inhibitors used in the assay were furafylline (10 μM), tranylcypromine (2 μM), ketoconazole (1 μM), troleandomycin (20 μM), orphenadrine (50 μM), montelukast (3 μM), sulfaphenazole (10 μM), benzylnirvanol (1 μM), quinidine (1 μM), and 1-aminobenzotriazole (1 mM) for all the P450 enzymes. Timing of the reactions was started following the addition of NADPH/magnesium chloride mix and PU-HZ151. Time-dependent chemical inhibitors (furafylline, troleandomycin, orphenadrine, and 1-aminobenzotriazole) were preincubated with human microsomes in the presence of NADPH and magnesium chloride for 15 min before the addition of PU-HZ151 and timing of reactions was started after addition of PU-HZ151. […] Following brief vortexing and centrifugation, a 200 µL aliquot of the supernatant was transferred to a tube, and 10 µL of haloperidol (1 µg mL^−1) as internal standard was added. Following brief vortexing and centrifugation, 50 µL of supernatant was added to a 96-well plate for subsequent LC-MS/MS analysis. PU-HZ151 was similarly tested as above in the absence of CYP inhibitors for comparative purposes. All samples were assayed in duplicate. […] This was similarly performed for incubations of PU-HZ151 performed in the absence of CYP inhibitor.

GBM#5 = experiment: Survival studies in mice; assay type: in vivo, mouse; details: 50 mg kg^−1 iv, three times per week, n=7
Description: Survival of the animals was followed until the mice became morbid (physical and/or neurological symptoms), at which point, the animals were killed. Typically, mice became symptomatic several weeks to a few months after GSC implantation. Log-rank tests were used to compare the distribution of time to killing across groups and Kaplan–Meier curves were produced.

[9] = Chronic administration toxicity; assay type: in vivo, B6C3F1 mice; details: 75 mg/kg IV 3 times per week, approximately 24 weeks

T1 sequence (P50406 whole entry): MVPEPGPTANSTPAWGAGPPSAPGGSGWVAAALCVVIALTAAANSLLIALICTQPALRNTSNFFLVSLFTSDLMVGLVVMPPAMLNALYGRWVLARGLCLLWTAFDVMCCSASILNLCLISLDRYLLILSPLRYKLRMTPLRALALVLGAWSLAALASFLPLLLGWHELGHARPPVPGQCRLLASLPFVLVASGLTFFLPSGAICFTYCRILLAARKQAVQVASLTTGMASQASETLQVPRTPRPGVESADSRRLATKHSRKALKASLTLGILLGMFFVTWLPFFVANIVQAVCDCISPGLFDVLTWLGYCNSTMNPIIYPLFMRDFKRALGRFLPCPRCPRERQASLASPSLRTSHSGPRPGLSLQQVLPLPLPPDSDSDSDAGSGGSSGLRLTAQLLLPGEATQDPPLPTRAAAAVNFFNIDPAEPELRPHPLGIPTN

CC(C)(C)CNCCn1c(Sc2cc3c(cc2I)OCO3)nc2c(N)ncnc21 [Compound 85]
Percent Inhibition: Serotonin, 5HT6 (h) [1]: 17.73%
inhibition at 10 µM [2]: 69.9%
Percent Inhibition: Phosphodiesterase, PDE5Al (h) [3]: -35.00%
Percent Inhibition: Opioid, Delta 2 (h) [4]: 20.37%
Percent Inhibition: Adenosine, Al [5]: 14.00%
Percent Inhibition: Adrenergic, Alpha 1B [5]: 27.43%
Percent Inhibition: Adrenergic, Alpha 2A (h) [5]: -1.92%
Percent Inhibition: Adrenergic, Alpha 2B [5]: 10.67%
Percent Inhibition: Adrenergic, Alpha 2C (h) [5]: 15.07%
Percent Inhibition: Adrenergic, Alpha lA [5]: 12.17%
Percent Inhibition: Angiotensin II, ATl (h) [5]: 0.36%
Percent Inhibition: Bradykinin, BK2 [5]: 10.14%
Percent Inhibition: Calcium Channel, Type N [5]: -11.15%
Percent Inhibition: Dopamine Transporter [5]: -12.87%
Percent Inhibition: Dopamine, D2s (h) [5]: 20.57%
Percent Inhibition: Dopamine, D3 [5]: -6.23%
Percent Inhibition: Esterase, Acetylcholine [5]: 6.63%
Percent Inhibition: GABA A, Agonist Site [5]: 33.91%
Percent Inhibition: GABA A, BDZ, alpha 1 site [5]: 18.61%
Percent Inhibition: GABA, Chloride, TBOB Site [5]: -28.46%
Percent Inhibition: GABA-B [5]: 18.61%
Percent Inhibition: Glutamate, AMPA Site (Ionotropic) [5]: 8.62%
Percent Inhibition: Glutamate, Kainate Site (Ionotropic) [5]: -7.63%
Percent Inhibition: Glutamate, MK-801 Site (Ionotropic) [5]: -0.50%
Percent Inhibition: Glutamate, NMDA Agonist Site (Ionotropic) [5]: 23.69%
Percent Inhibition: Glutamate, NMDA, Phencyclidine Site (Ionotropic) [5]: 6.26%
Percent Inhibition: Glutamate,NMDA,Glycine (Stry-insens Site) [5]: -0.97%
Percent Inhibition: Glycine, Strychnine-sensitive [5]: -19.46%
Percent Inhibition: Histamine, H2 [5]: 40.98%
Percent Inhibition: Histamine, H3 [5]: 22.25%
Percent Inhibition: Histamine, Hl [5]: 5.94%
Percent Inhibition: Leukotriene, LTB4 (BLT) [5]: 22.06%
Percent Inhibition: Leukotriene, LTD4 (CysLTl) [5]: 28.77%
Percent Inhibition: Neurokinin, NKl [5]: 20.40%
Percent Inhibition: Nicotinic, Neuronal (a-BnTx insensitive) [5]: -17.51%
Percent Inhibition: Nitric Oxide, NOS (Neuronal-Binding) [5]: -1.73%
Percent Inhibition: Norepinephrine Transporter [5]: 5.73%
Percent Inhibition: Phosphodiesterase, PDE4A1A (h) [5]: 14.00%
Percent Inhibition: Potassium Channel, ATP-Sensitive [5]: -1.01%
Percent Inhibition: Potassium Channel, Ca2+ Act., VI [5]: 18.66%
Percent Inhibition: Serotonin Transporter [5]: 5.96%
Percent Inhibition: Serotonin, 5HT1D [5]: 5.13%
Percent Inhibition: Serotonin, 5HT2A [5]: 8.50%
Percent Inhibition: Serotonin, 5HT2C [5]: 12.77%
Percent Inhibition: Serotonin, 5HT3 [5]: 6.61%
Percent Inhibition: Serotonin, 5HT4 [5]: 36.08%
Percent Inhibition: Sigma 2 [5]: -0.71%
Percent Inhibition: Sodium, Site 2 [5]: 14.53%
Percent Inhibition: Muscarinic, M4 (h) [6]: 27.60%
Percent Inhibition: Serotonin, 5HT5A (h) [7]: 11.09%
Percent Inhibition: Kinase, Protein, PKCa (h) [8]: 11.20%
PAMPA_BBB (PAMPA-BBB permeability; Supplementary Table 6): 15.4±2.6
Papp at 16 h, 50 μM (PAMPA-BBB permeability; pig, PAMPA, pH 7.4): 15.4 ± 1.3 ×10⁻⁶ cm/s
% PU-HZ151 remaining (CYP2C8; 15 min): 59.7%
% PU-HZ151 remaining (CYP2C8; 30 min): 42.1%
% PU-HZ151 remaining (CYP2C8; 60 min): 22.4%
inhibition of PU-HZ151 metabolism (CYP2C8; montelukast): 6%
survival vs vehicle, log-rank P (GBM#5): 0.86
chronic toxicity [9]: No
